According to patent US12427146B2, “C-terminal SRC kinase inhibitors” (INVENTISBIO CO., LTD., priority 2018, dated 2025):

How the values were obtained:
CSK protein = CSK protein (Homo sapiens (Human), UniProt P41240); assay: CSK Inhibition Assay; format: biochemical
Procedure: Test compound was dissolved in DMSO at 10 mM. 45 uL of compound was transferred into a 384-well compound source plate (LABCYTE cat #P-05525) and serially diluted at 1:3 ratio to create a 11-point dilutions. The same volume of DMSO was adopted as high control. 20 nL of these compounds DMSO dilutes were dispensed into a new 384-well assay plate by Echo 550. […] 15 uL of kinase assay buffer containing CSK protein and substrate was transferred to assay plate and incubated at RT for 30 minutes. Kinase assay buffer supplemented with substrate peptides was employed as low control to monitor the background. 4 μM of ATP was prepared in kinase assay buffer and 5 μL of ATP solution was added to each well to start the reaction. The assay plate was incubated at 25° C. for 90 minutes and the reaction was stopped by adding 40 μL of 0.5 M EDTA.
(§1) Phosphorylated fluorescent-tagged peptides were differentiated from non-phosphorylated peptides by separating using Caliper EZ Reader II and the detection was directly converted to conversion ratio.
(§2) For estimation of IC50, the % substrate conversion values are transformed to % Inhibition Ratio by applying the following equation: […]

LCK protein = LCK protein (Homo sapiens (Human), UniProt P06239); assay: LCK Inhibition Assay; format: biochemical
LCK protein, sequence (P06239 whole entry): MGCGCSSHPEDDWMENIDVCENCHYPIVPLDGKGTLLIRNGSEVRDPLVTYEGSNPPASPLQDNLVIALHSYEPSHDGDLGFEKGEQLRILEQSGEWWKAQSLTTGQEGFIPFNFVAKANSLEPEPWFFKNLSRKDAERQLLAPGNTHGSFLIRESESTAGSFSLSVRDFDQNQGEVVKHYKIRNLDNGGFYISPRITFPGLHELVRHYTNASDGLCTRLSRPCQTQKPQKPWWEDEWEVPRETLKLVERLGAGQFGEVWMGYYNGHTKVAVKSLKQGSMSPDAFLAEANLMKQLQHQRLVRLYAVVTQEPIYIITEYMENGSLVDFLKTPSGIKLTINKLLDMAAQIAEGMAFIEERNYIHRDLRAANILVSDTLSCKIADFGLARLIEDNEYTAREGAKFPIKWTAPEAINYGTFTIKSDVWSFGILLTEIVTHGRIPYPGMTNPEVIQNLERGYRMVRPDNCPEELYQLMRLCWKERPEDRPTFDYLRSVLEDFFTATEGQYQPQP
Procedure: Test compound was dissolved in DMSO at 10 mM. 45 uL of compound was transfer into a 384-well compound source plate (LABCYTE cat #P-05525) and serially diluted at 1:3 ratio to create a 11-point dilutions. The same volume of DMSO was adopted as high control. 20 nL of these compounds DMSO dilutes were dispensed into a new 384-well assay plate by Echo 550. LCK protein (0.50 nM, Cama Biosciences, cat #08-170), florescent labeled substrate FLPeptide4 (2 μM, PerkinElmer, cat #760348) was prepared in kinase assay buffer (50 mM HEPES (pH 7.5), 10 mM MgCl2, 0.01% Brij-35, 2 mM DTT and 0.005 mg/ml BSA). 15 uL of kinase assay buffer containing LCK protein and substrate was transferred to assay plate and incubate at RT for 30 minutes. Kinase assay buffer supplemented with substrate peptides was employed as low control to monitor the background. 400 μM ATP was prepared in kinase assay buffer and 5 μL of ATP solution was added to each well to start the reaction. The assay plate was incubated at 25° C. for 90 minutes and the reaction was stopped by adding 40 μL of 0.5 M EDTA.
as §1, §2

CSK protein, sequence (P41240 whole entry): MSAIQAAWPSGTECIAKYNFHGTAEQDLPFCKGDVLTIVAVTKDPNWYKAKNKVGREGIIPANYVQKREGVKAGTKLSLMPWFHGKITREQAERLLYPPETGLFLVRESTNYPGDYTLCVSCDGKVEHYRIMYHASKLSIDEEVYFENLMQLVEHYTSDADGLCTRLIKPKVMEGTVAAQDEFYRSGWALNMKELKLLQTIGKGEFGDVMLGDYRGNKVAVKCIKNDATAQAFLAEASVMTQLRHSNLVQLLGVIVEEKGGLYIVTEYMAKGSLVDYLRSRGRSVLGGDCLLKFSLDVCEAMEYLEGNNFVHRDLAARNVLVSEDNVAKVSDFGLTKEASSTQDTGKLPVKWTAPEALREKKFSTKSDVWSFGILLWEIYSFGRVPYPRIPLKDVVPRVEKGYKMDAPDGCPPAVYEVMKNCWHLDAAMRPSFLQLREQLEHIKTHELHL

Work on O=S(=O)(Nc1cccc(-c2nc(N3CCCCC3)sc2-c2ccnc(NC3CC3)n2)c1F)c1c(F)cccc1F [Compound 163] yielded an IC50 (CSK protein) of 7.4 nM and an IC50 (LCK protein) of 100 to 1000 nM.

Compound Cc1ccc(F)c(S(=O)(=O)Nc2cccc(-c3nc(-c4cncc(F)c4)sc3-c3ccnc(NC4CC4)n3)c2F)c1F [Compound 169] has an IC50 (CSK protein) of 9.1 nM and an IC50 (LCK protein) of over 1000 nM.

Work on Cc1ccc(Cl)c(S(=O)(=O)Nc2cccc(-c3nc(N4CCCCC4)sc3-c3ccnc(NCCO)n3)c2F)c1Cl [Compound 178] yielded an IC50 (CSK protein) of 7.5 nM and an IC50 (LCK protein) of over 1000 nM.

For CNc1nccc(-c2c(-c3cccc(NS(=O)(=O)c4c(F)ccc(C)c4F)c3F)nc3cc(F)ccn23)n1 [Compound 107], the IC50 (CSK protein) was 113 nM and the IC50 (LCK protein) was over 1000 nM.

Cc1ccc(F)c(S(=O)(=O)Nc2cccc(-c3nc(-c4ccccc4)sc3-c3ccnc(NCCO)n3)c2F)c1F [Compound 131] gave an IC50 (CSK protein) of 13.1 nM and an IC50 (LCK protein) of over 1000 nM.

CNc1nccc(-c2sc(N(C)C)nc2-c2cccc(NS(=O)(=O)c3c(F)ccc(C)c3F)c2F)n1 [Compound 180] gave an IC50 (CSK protein) of 13 nM and an IC50 (LCK protein) of over 1000 nM.

With CCn1c(-c2ccccc2)nc(-c2ccnc(N)n2)c1-c1cccc(NS(=O)(=O)c2c(F)cccc2F)c1F [Compound 89] the IC50 (CSK protein) was 321 nM.

Work on COc1cc(NS(=O)(=O)c2c(F)cccc2F)cc(-c2nc(-c3cncc(F)c3)sc2-c2ccnc(N)n2)c1 [Compound 21] yielded an IC50 (LCK protein) of 100 to 1000 nM.

Work on CNc1nccc(-c2sc(NCC(F)(F)F)nc2-c2cccc(NS(=O)(=O)c3c(F)cccc3F)c2F)n1 [Compound 165] yielded an IC50 (CSK protein) of 9.9 nM and an IC50 (LCK protein) of 100 to 1000 nM.

Work on CNc1nccc(-c2sc(N3CCC(F)(F)CC3)nc2-c2cccc(NS(=O)(=O)c3c(F)cccc3F)c2F)n1 [Compound 164] yielded an IC50 (CSK protein) of 25.4 nM and an IC50 (LCK protein) of 100 to 1000 nM.

Compound Nc1nccc(-c2sc(-c3ccc(F)cn3)nc2-c2cccc(NS(=O)(=O)c3c(F)cccc3F)c2F)n1 [Compound 12] has an IC50 (CSK protein) of 61.6 nM and an IC50 (LCK protein) of over 1000 nM.

Work on Nc1nccc(-c2sc(N3CCCC3=O)nc2-c2cccc(NS(=O)(=O)c3c(F)cccc3F)c2F)n1 [compound 112] yielded an IC50 (CSK protein) of 30.3 nM and an IC50 (LCK protein) of over 1000 nM.

For CN1CCN(c2ccc(Nc3nccc(-c4cn(C5CCCCC5)nc4-c4cccc(NS(=O)(=O)c5c(F)cccc5F)c4F)n3)cn2)CC1 [compound 108], the IC50 (CSK protein) was 2.5 nM and the IC50 (LCK protein) was under 100 nM.

Work on O=S(=O)(Nc1cccc(-c2nc(-c3ccc(F)cn3)sc2-c2ccnc(NC3CCCC3)n2)c1F)c1c(F)cccc1F [Compound 31] yielded an IC50 (CSK protein) of over 10000 nM.

Compound COc1ccn2c(-c3ccnc(N)n3)c(-c3cccc(NS(=O)(=O)c4c(F)ccc(C)c4F)c3F)nc2c1 [Compound 99] has an IC50 (CSK protein) of 105 nM.

In the case of O=S(=O)(Nc1cccc(-c2nc(-c3ccccc3)sc2-c2ccnc(NC3CCNCC3)n2)c1F)c1c(F)cccc1F [compound 8], the IC50 (CSK protein) is reported as over 10000 nM.

With Nc1nccc(-c2sc(-c3ccccc3)nc2-c2cccc(NS(=O)(=O)c3c(F)cccc3F)n2)n1 [Compound 26] the IC50 (CSK protein) was over 10000 nM.

CC(C)(C)c1nc(-c2cccc(NS(=O)(=O)c3c(F)cccc3F)c2F)c(-c2ccnc(N)n2)s1 [Dabrafenib, reference compound] was tested, and the IC50 (CSK protein) was about 50 nM and the “selectivity over LCK” value (CSK protein; CSK inhibition over LCK) was “about 10 fold”.

For Nc1nccc(-c2sc(-c3ccccc3)nc2-c2cccc(NS(=O)(=O)c3ccc4ocnc4c3)c2F)n1 [compound 57], the IC50 (CSK protein) was 251 nM.

Work on Cn1c(-c2ccccc2)nc(-c2cccc(NS(=O)(=O)c3c(F)cccc3F)c2F)c1-c1ccnc(N)n1 [Compound 87] yielded an IC50 (CSK protein) of 947 nM.

For Cn1c(-c2ccccc2)nc(-c2ccnc(N)n2)c1-c1cccc(NS(=O)(=O)c2c(F)cccc2F)c1F [Compound 86], the IC50 (CSK protein) was 1220 nM.

For CN(C)c1nccc(-c2sc(-c3ccccc3)nc2-c2cccc(NS(=O)(=O)c3c(F)cccc3F)c2F)n1 [compound 37], the IC50 (CSK protein) was over 10000 nM.

C[C@@H](Nc1nccc(-c2sc(-c3ccccc3)nc2-c2cccc(NS(=O)(=O)c3c(F)cccc3F)c2F)n1)C(N)=O [Compound 49] gave an IC50 (CSK protein) of 345 nM.

With Nc1nccc(-c2sc(-c3cccc(N4CCC4)n3)nc2-c2cccc(NS(=O)(=O)c3c(F)cccc3F)c2F)n1 [compound 1] the IC50 (CSK protein) was 1060 nM.

With CCn1c(-c2ccccc2)nc(-c2cccc(NS(=O)(=O)c3c(F)cccc3F)c2F)c1-c1ccnc(N)n1 [compound 88] the IC50 (CSK protein) was over 10000 nM.
